{
  "source": "paper PMC9501129",
  "about": "(Pharmaceutics, 2022)",
  "origin": "cited, not measured here",
  "conditions": "cited from earlier work",
  "key": {"[1]": {"conditions": "Healthy Participants (Males), 30 mg oral phase, 800 mg LA CAB every 12 weeks, 2nd injection, ref 29"}, "[2]": {"conditions": "Healthy Participants (Males), 30 mg oral phase, 800 mg LA CAB every 12 weeks, 3rd injection, ref 28"}, "[3]": {"conditions": "Healthy Participants (Males), 30 mg oral phase, 800 mg LA CAB every 12 weeks, 3rd injection, ref 29"}, "[4]": {"conditions": "Healthy Participants, oral lead-in followed by LA CAB IM or SC injection: 30 mg, with Rilpivirine LA IM monthly"}, "[5]": {"conditions": "Healthy Participants, oral lead-in followed by LA CAB injection: 200 mg IM, with Rilpivirine LA IM monthly"}, "[6]": {"conditions": "Healthy Participants, oral lead-in followed by LA CAB injection: 200 mg SC, with Rilpivirine LA IM monthly"}, "[7]": {"conditions": "Healthy Participants, oral lead-in followed by LA CAB injection: 400 mg IM, with Rilpivirine LA IM monthly"}, "[8]": {"conditions": "Healthy Participants, oral lead-in followed by LA CAB injection: 800 mg IM, with Rilpivirine LA IM monthly"}, "[9]": {"conditions": "Healthy Participants, repeat oral dose 5 mg"}, "[10]": {"conditions": "Healthy Participants, repeat oral dose 10 mg"}, "[11]": {"conditions": "Healthy Participants, repeat oral dose 25 mg"}, "[12]": {"conditions": "Healthy Participants, single oral dose 5 mg"}, "[13]": {"conditions": "Healthy Participants, single oral dose 10 mg"}, "[14]": {"conditions": "Healthy Participants, single oral dose 25 mg"}, "[15]": {"conditions": "Healthy Participants, single oral dose 50 mg"}, "[16]": {"conditions": "Participants with HIV, repeat oral dose 30 mg"}, "[17]": {"conditions": "Participants with HIV, single oral dose 5 mg"}},
  "note": "Read-outs that look alike come from different tables or passages of the source.",
  "data": [
    {"compound": "C[C@H]1CO[C@@H]2Cn3cc(C(=O)NCc4ccc(F)cc4F)c(=O)c(O)c3C(=O)N12", "note": "[CAB, cabotegravir]", "values": [
      {"measurement": "Human Plasma Levels Cmin", "setting": "Healthy Participants (Males), 30 mg oral phase, 800 mg LA CAB every 12 weeks, 2nd injection, ref 28", "result": 331, "unit": "ng/mL"},
      {"measurement": "Human Plasma Levels Cmax", "setting": "[1]", "result": 2570, "unit": "ng/mL"},
      {"measurement": "Human Plasma Levels Cmin", "setting": "[1]", "result": 780, "unit": "ng/mL"},
      {"measurement": "Human Plasma Levels Cmax", "setting": "[2]", "result": 4910, "unit": "ng/mL"},
      {"measurement": "Human Plasma Levels Cmin", "setting": "[2]", "result": 387, "unit": "ng/mL"},
      {"measurement": "Human Plasma Levels Cmax", "setting": "[3]", "result": 3390, "unit": "ng/mL"},
      {"measurement": "Human Plasma Levels Cmin", "setting": "[3]", "result": 820, "unit": "ng/mL"},
      {"measurement": "Human Plasma Levels Cmax", "setting": "Healthy Participants, IM (gluteal) injection 100 mg IM", "result": 200, "unit": "ng/mL"},
      {"measurement": "Human Plasma Levels Cmax", "setting": "Healthy Participants, IM (gluteal) injection 200 mg IM", "result": 300, "unit": "ng/mL"},
      {"measurement": "Human Plasma Levels Cmax", "setting": "Healthy Participants, IM (gluteal) injection 400 mg (200 mg × 2)", "result": 1400, "unit": "ng/mL"},
      {"measurement": "Human Plasma Levels Cmax", "setting": "Healthy Participants, IM (gluteal) injection 400 mg IM", "result": 700, "unit": "ng/mL"},
      {"measurement": "Human Plasma Levels Cmax", "setting": "Healthy Participants, IM (gluteal) injection 800 mg IM (400 mg × 2)", "result": 3300, "unit": "ng/mL"},
      {"measurement": "Human Plasma Levels Cmax", "setting": "Healthy Participants, SC (abdominal) injection 100 mg", "result": 200, "unit": "ng/mL"},
      {"measurement": "Human Plasma Levels Cmax", "setting": "Healthy Participants, SC (abdominal) injection 200 mg", "result": 500, "unit": "ng/mL"},
      {"measurement": "Human Plasma Levels Cmax", "setting": "Healthy Participants, SC (abdominal) injection 400 mg (200 mg × 2)", "result": 900, "unit": "ng/mL"},
      {"measurement": "Human Plasma Levels Cmax", "setting": "[4]", "result": 8300, "unit": "ng/mL"},
      {"measurement": "Human Plasma Levels Cmin", "setting": "[4]", "result": 4900, "unit": "ng/mL"},
      {"measurement": "Human Plasma Levels Cmax", "setting": "[5]", "result": 2200, "unit": "ng/mL"},
      {"measurement": "Human Plasma Levels Cmin", "setting": "[5]", "result": 1610, "unit": "ng/mL"},
      {"measurement": "Human Plasma Levels Cmax", "setting": "[6]", "result": 2100, "unit": "ng/mL"},
      {"measurement": "Human Plasma Levels Cmin", "setting": "[6]", "result": 1660, "unit": "ng/mL"},
      {"measurement": "Human Plasma Levels Cmax", "setting": "[7]", "result": 4400, "unit": "ng/mL"},
      {"measurement": "Human Plasma Levels Cmin", "setting": "[7]", "result": 3270, "unit": "ng/mL"},
      {"measurement": "Human Plasma Levels Cmax", "setting": "[8]", "result": 3300, "unit": "ng/mL"},
      {"measurement": "Human Plasma Levels Cmin", "setting": "[8]", "result": 1100, "unit": "ng/mL"},
      {"measurement": "Human Plasma Levels Cmax", "setting": "[9]", "result": 2080, "unit": "ng/mL"},
      {"measurement": "Human Plasma Levels Cmin", "setting": "[9]", "result": 1060, "unit": "ng/mL"},
      {"measurement": "Human Plasma Levels Cmax", "setting": "[10]", "result": 4290, "unit": "ng/mL"},
      {"measurement": "Human Plasma Levels Cmin", "setting": "[10]", "result": 2390, "unit": "ng/mL"},
      {"measurement": "Human Plasma Levels Cmax", "setting": "[11]", "result": 9470, "unit": "ng/mL"},
      {"measurement": "Human Plasma Levels Cmin", "setting": "[11]", "result": 5400, "unit": "ng/mL"},
      {"measurement": "Human Plasma Levels Cmax", "setting": "[12]", "result": 1150, "unit": "ng/mL"},
      {"measurement": "Human Plasma Levels Cmin", "setting": "[12]", "result": 420, "unit": "ng/mL"},
      {"measurement": "Human Plasma Levels Cmax", "setting": "[13]", "result": 2150, "unit": "ng/mL"},
      {"measurement": "Human Plasma Levels Cmin", "setting": "[13]", "result": 830, "unit": "ng/mL"},
      {"measurement": "Human Plasma Levels Cmax", "setting": "[14]", "result": 4380, "unit": "ng/mL"},
      {"measurement": "Human Plasma Levels Cmin", "setting": "[14]", "result": 1930, "unit": "ng/mL"},
      {"measurement": "Human Plasma Levels Cmax", "setting": "[15]", "result": 8570, "unit": "ng/mL"},
      {"measurement": "Human Plasma Levels Cmin", "setting": "[15]", "result": 3820, "unit": "ng/mL"},
      {"measurement": "Human Plasma Levels Cmin", "setting": "Participants with HIV, CAB/rilpivirine LA injectable, repeat-dose every 4 week 400 mg", "result": 2740, "unit": "ng/mL"},
      {"measurement": "Human Plasma Levels Cmin", "setting": "Participants with HIV, CAB/rilpivirine LA injectable, repeat-dose every 8 week 600 mg", "result": 1670, "unit": "ng/mL"},
      {"measurement": "Human Plasma Levels Cmax", "setting": "Participants with HIV, repeat oral dose 5 mg", "result": 1020, "unit": "ng/mL"},
      {"measurement": "Human Plasma Levels Cmax", "setting": "[16]", "result": 6370, "unit": "ng/mL"},
      {"measurement": "Human Plasma Levels Cmin", "setting": "[16]", "result": 3280, "unit": "ng/mL"},
      {"measurement": "Human Plasma Levels Cmax", "setting": "[17]", "result": 520, "unit": "ng/mL"},
      {"measurement": "Human Plasma Levels Cmin", "setting": "[17]", "result": 230, "unit": "ng/mL"},
      {"measurement": "Human Plasma Levels Cmin", "setting": "Participants with HIV, single oral dose 30 mg (Ctau)", "result": 1250, "unit": "ng/mL"},
      {"measurement": "Human Plasma Levels Cmax", "setting": "Participants with HIV, single oral dose 30 mg", "result": 2840, "unit": "ng/mL"}
    ]}
  ]
}
